Experiments:
[1] = system: STAT5 phosphorylation by GMCSF in TF-1 cells; experiment: JAK cellular assay: STAT5 phosphorylation by GMCSF in TF-1 cells (HTRF); format: cell-based; conditions: Homo sapiens; TF-1 cells, GMCSF 5 ng/ml, pSTAT5 HTRF; read-out: Cell Based Assay (μM) TF-1/GMCSF/pSTAT5
Summary of the method: (§1)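 Phospho-STAT3 (IL-6, 30 ng/ml) and phospho-STAT5 (GMCSF, 5 ng/ml) read by HTRF in lysates after 20 min cytokine exposure, minus unstimulated-cell background. Cells were serum-starved overnight, plated at 120,000/well, given compound 30 min at 37 °C beforehand; DMSO 0.2% final.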

Recombinant JAK3 = biological target: T1, Recombinant JAK3 (Homo sapiens, UniProt P52333); experiment: JAK biochemical assay (LANCE Ultra TR-FRET), JAK3; conditions: recombinant JAK3, TR-FRET; read-out: Biochemical Assay (μM) JAK3
T1 construct: purchased Carna Biosciences
T1 sequence (P52333 1-1124): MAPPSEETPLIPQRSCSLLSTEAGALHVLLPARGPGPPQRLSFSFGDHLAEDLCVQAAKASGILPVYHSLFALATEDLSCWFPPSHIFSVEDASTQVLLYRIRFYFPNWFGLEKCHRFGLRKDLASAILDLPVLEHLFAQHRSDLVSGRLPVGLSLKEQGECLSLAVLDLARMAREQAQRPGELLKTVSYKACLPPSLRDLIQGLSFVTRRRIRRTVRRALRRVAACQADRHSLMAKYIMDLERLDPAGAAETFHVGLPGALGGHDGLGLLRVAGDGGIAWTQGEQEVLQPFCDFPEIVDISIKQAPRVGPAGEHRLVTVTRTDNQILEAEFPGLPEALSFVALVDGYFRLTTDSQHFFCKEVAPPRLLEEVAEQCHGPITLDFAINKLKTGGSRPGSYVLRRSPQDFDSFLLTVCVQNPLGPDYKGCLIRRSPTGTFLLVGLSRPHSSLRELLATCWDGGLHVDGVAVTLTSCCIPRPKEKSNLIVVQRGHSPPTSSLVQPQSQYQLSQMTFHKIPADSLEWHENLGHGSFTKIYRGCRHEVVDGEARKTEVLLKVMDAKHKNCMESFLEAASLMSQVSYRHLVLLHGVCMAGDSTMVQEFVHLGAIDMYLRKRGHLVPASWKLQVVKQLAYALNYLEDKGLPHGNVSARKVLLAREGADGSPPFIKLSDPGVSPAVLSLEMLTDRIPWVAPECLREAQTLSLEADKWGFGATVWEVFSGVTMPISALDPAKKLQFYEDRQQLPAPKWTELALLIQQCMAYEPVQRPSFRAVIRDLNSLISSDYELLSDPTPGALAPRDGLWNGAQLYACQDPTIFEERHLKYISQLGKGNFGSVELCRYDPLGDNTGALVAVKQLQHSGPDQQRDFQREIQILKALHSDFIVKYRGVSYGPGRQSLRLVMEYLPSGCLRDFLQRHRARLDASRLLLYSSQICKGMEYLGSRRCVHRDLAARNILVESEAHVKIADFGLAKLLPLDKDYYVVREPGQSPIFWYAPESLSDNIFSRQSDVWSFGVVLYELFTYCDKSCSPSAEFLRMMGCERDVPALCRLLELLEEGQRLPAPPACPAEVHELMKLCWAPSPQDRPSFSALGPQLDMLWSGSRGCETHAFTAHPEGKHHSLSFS
Summary of the method: (§2)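 TR-FRET read-out of ULight substrate phosphorylation by recombinant kinase gives % inhibition relative to vehicle. The assay buffer is HEPES pH 7.5 with EGTA, MgCl2, DTT and Tween-20.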

Recombinant TYK2 = biological target: T2, Recombinant TYK2 (Homo sapiens, UniProt P29597); experiment: JAK biochemical assay (LANCE Ultra TR-FRET), TYK2; conditions: recombinant TYK2, TR-FRET; read-out: Biochemical Assay (μM) TYK2
T2 construct: purchased Carna Biosciences
T2 sequence (P29597 whole entry): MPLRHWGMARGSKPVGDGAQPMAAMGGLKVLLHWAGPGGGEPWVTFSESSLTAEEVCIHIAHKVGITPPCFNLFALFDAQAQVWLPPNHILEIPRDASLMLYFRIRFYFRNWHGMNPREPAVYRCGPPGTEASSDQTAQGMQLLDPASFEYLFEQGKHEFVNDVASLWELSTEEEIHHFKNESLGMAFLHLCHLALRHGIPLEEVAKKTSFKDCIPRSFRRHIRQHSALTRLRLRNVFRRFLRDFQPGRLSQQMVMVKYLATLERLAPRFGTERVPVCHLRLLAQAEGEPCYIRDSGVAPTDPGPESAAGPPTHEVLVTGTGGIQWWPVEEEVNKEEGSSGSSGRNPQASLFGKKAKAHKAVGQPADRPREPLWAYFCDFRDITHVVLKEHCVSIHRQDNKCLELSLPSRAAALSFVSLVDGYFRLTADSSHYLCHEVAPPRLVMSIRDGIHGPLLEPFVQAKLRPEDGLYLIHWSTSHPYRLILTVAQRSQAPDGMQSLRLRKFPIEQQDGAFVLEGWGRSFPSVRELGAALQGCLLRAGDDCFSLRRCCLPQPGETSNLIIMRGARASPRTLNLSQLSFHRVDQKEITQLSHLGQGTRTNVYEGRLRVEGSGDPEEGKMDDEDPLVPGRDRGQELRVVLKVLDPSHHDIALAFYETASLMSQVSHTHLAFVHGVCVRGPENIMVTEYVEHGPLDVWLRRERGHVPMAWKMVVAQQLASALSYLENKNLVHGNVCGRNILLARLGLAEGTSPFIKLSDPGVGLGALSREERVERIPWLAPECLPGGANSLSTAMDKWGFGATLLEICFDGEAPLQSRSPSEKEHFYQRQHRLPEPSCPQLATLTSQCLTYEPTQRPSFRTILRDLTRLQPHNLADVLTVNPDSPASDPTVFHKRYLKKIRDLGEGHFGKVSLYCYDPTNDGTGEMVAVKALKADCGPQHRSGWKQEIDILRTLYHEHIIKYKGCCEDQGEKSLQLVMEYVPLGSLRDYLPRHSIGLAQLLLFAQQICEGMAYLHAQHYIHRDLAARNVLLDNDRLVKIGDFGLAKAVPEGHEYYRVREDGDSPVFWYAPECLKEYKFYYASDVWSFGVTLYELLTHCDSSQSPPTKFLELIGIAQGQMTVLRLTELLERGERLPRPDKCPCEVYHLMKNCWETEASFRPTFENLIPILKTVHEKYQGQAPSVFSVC
Summary of the method: as §2

[2] = system: STAT3 phosphorylation by IL-6 in TF-1 cells; experiment: JAK cellular assay: STAT3 phosphorylation by IL-6 in TF-1 cells (HTRF); format: cell-based; conditions: Homo sapiens, TF-1, TF-1 cells, IL-6 30 ng/ml, pSTAT3 HTRF; read-out: Cell Based Assay (μM) TF-1/IL-6/pSTAT3
Summary of the method: as §1

Recombinant JAK1 = biological target: T3, Recombinant JAK1 (Homo sapiens, UniProt P23458); experiment: JAK biochemical assay (LANCE Ultra TR-FRET), JAK1; conditions: recombinant JAK1, TR-FRET; read-out: Biochemical Assay (μM) JAK1
T3 construct: purchased Carna Biosciences
T3 sequence (P23458 whole entry): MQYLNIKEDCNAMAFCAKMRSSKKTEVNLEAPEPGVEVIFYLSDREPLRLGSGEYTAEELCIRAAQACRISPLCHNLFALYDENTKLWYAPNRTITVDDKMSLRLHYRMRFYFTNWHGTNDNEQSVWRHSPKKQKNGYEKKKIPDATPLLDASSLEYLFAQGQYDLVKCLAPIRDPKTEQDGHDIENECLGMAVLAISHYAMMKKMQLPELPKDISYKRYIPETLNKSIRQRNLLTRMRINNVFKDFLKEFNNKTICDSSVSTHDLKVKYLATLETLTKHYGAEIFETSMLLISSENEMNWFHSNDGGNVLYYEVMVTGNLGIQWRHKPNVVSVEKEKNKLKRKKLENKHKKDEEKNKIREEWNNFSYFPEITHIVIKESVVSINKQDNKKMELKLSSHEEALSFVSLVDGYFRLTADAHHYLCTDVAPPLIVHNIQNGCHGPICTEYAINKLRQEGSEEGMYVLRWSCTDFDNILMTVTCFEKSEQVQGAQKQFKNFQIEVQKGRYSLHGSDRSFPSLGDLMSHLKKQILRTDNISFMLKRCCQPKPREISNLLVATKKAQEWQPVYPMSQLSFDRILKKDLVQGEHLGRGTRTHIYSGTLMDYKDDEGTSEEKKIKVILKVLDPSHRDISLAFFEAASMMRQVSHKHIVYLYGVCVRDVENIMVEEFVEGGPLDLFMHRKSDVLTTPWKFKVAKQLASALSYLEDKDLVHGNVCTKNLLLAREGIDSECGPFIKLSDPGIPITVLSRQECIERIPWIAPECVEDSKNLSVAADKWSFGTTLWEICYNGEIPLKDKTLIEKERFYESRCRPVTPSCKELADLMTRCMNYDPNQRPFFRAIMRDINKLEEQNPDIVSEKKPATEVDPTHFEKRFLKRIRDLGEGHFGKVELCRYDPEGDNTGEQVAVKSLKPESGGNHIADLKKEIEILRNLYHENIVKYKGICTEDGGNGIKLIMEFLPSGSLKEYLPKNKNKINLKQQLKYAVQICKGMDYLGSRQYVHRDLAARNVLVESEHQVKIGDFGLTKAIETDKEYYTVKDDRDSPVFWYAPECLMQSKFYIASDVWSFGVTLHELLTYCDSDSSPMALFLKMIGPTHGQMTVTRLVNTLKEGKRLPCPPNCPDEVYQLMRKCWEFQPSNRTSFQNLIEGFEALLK
Summary of the method: as §2

Recombinant JAK2 = biological target: T4, Recombinant JAK2 (Homo sapiens, UniProt O60674); experiment: JAK biochemical assay (LANCE Ultra TR-FRET), JAK2; conditions: recombinant JAK2, TR-FRET; read-out: Biochemical Assay (μM) JAK2
T4 construct: purchased Carna Biosciences
T4 sequence (O60674 whole entry): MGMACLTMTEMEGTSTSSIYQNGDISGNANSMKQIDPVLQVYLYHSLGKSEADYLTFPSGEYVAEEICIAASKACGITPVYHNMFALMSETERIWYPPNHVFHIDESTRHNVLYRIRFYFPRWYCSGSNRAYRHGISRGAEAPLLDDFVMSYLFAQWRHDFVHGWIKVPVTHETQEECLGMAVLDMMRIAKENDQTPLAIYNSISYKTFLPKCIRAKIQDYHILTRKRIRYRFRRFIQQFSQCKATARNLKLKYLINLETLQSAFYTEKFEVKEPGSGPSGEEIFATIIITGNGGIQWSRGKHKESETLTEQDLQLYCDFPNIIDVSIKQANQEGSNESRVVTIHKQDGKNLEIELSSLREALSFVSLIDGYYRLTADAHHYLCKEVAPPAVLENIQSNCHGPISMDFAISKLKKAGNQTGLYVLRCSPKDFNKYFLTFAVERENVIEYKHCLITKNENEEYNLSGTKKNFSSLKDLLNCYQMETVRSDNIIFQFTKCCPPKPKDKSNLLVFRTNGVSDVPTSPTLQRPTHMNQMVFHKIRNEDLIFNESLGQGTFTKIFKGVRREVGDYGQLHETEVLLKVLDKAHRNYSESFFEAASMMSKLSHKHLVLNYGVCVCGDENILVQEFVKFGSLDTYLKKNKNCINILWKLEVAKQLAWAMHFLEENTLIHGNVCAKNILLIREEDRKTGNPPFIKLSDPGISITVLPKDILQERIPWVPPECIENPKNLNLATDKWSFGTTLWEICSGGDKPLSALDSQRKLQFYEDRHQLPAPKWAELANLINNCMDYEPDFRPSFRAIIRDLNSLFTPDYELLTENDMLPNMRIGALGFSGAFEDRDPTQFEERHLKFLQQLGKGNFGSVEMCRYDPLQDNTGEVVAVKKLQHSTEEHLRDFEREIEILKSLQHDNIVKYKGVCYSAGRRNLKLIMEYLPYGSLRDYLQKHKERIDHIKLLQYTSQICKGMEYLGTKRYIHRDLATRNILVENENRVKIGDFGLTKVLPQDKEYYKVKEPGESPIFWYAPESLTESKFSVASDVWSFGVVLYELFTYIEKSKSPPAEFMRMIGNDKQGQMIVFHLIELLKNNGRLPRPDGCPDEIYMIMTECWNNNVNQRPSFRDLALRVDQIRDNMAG
Summary of the method: as §2

Structure (SMILES) | IC50 [1] | IC50 (Recombinant JAK3) | IC50 (Recombinant TYK2) | IC50 [2] | IC50 (Recombinant JAK1) | IC50 (Recombinant JAK2)
CC(CC#N)NC(=O)n1cc(-c2ccnc3[nH]c(=O)[nH]c23)cn1 (stereo not drawn) [Example 1046, N-(1-cyanopropan-2-yl)-4-(2,3-dihydro-2-oxo-1H-imidazo[4,5-b]pyridin-7-yl)-1H-pyrazole-1-carboxamide] | > 10 µM | < 0.5 µM | < 0.5 µM | > 10 µM | < 0.5 µM | < 0.5 µM
CN1CCN(CCC(c2ccc(-n3cc(-c4ccnc5[nH]cnc45)cn3)nc2)C(F)(F)F)CC1 (stereo not drawn) [Example 1219, 7-(1-(5-(1,1,1-trifluoro-4-(4-methylpiperazin-1-yl)butan-2-yl)pyridin-2-yl)-1H-pyrazol-4-yl)-3H-imidazo[4,5-b]pyridine] | > 1 µM | < 0.1 µM | > 0.5 µM | > 0.75 µM | < 0.1 µM | < 0.1 µM
O=C(NCC(F)(F)F)n1cc(-c2ccnc3[nH]c(=O)[nH]c23)cn1 [Example 1026, N-(2,2,2-trifluoroethyl)-4-(2,3-dihydro-2-oxo-1H-imidazo[4,5-b]pyridin-7-yl)-1H-pyrazole-1-carboxamide] | > 10 µM | 0.283 µM | 0.122 µM | > 1 µM | 0.041 µM | 0.048 µM
O=C(NCC(F)(F)F)n1cc(-c2ccnc3[nH]c(-c4ccccc4)nc23)cn1 [Example 1094, N-(2,2,2-trifluoroethyl)-4-(2-phenyl-3H-imidazo[4,5-b]pyridin-7-yl)-1H-pyrazole-1-carboxamide] | > 1 µM | < 0.5 µM | < 0.5 µM | > 1 µM | < 0.5 µM | < 0.5 µM
CS(=O)(=O)CCC(C#N)c1ccc(-n2cc(-c3ccnc4[nH]cnc34)cn2)nc1 (stereo not drawn) [Example 1116, 2-(6-(4-(3H-imidazo[4,5-b]pyridin-7-yl)-1H-pyrazol-1-yl)pyridin-3-yl)-4-(methylsulfonyl) butanenitrile] | > 10 µM | > 0.1 µM | > 1 µM | > 1 µM | > 0.1 µM | > 0.5 µM
OC(c1ccc(-n2cc(-c3ccnc4[nH]cnc34)cn2)cn1)C(F)(F)F (stereo not drawn) [Example 1173, 1-(5-(4-(3H-imidazo[4,5-b]pyridin-7-yl)-1H-pyrazol-1-yl)pyridin-2-yl)-2,2,2-trifluoroethanol] | > 10 µM | < 0.1 µM | > 1 µM | 10 µM | < 0.1 µM | < 0.1 µM
N#CC(NC(=O)n1cc(-c2ccnc3[nH]c(=O)[nH]c23)cn1)C1CC1 (stereo not drawn) [Example 1043, N-(cyano(cyclopropyl)methyl)-4-(2,3-dihydro-2-oxo-1H-imidazo[4,5-b]pyridin-7-yl)-1H-pyrazole-1-carboxamide] | > 10 µM | 0.123 µM | 0.053 µM | 4.7 µM | 0.03 µM | 0.031 µM
OC(c1ccc(-n2cc(-c3ccnc4[nH]cnc34)cn2)nc1)(C1CCCCC1)C(F)(F)F (stereo not drawn) [Example 1130, 1-(6-(4-(3H-imidazo[4,5-b]pyridin-7-yl)-1H-pyrazol-1-yl)pyridin-3-yl)-1-cyclohexyl-2,2,2-trifluoroethanol] | > 10 µM | > 0.1 µM | > 1 µM | > 1 µM | > 0.1 µM | > 0.1 µM
c1cc(-c2cnn(-c3ccc(CC4COC4)cn3)c2)c2nc[nH]c2n1 [Example 1081, 7-(1-(5-((oxetan-3-yl)methyl)pyridin-2-yl)-1H-pyrazol-4-yl)-3H-imidazo[4,5-b]pyridine] | > 10 µM | < 0.5 µM | > 10 µM | > 1 µM | < 0.5 µM | > 0.5 µM
N#CC1(c2ccc(-n3cc(-c4ccnc5[nH]cnc45)cn3)nc2)CC1 [Example 1109, 1-(6-(4-(3H-imidazo[4,5-b]pyridin-7-yl)-1H-pyrazol-1-yl)pyridin-3-yl)cyclopropanecarbonitrile] | > 10 µM | < 0.5 µM | > 10 µM | > 1 µM | < 0.5 µM | < 0.5 µM
N#CC1CC(NC(=O)n2cc(-c3ccnc4[nH]c(=O)[nH]c34)cn2)C1 (stereo not drawn) [Example 1056, N-(3-cyanocyclobutyl)-4-(2,3-dihydro-2-oxo-1H-imidazo[4,5-b]pyridin-7-yl)-1H-Pyrazole-1-carboxamide] | > 10 µM | < 0.5 µM | > 0.5 µM | > 10 µM | < 0.5 µM | < 0.5 µM
OC(c1cccc(-n2cc(-c3ccnc4[nH]cnc34)cn2)n1)C(F)(F)F (stereo not drawn) [Example 1170, 1-(6-(4-(3H-imidazo[4,5-b]pyridin-7-yl)-1H-pyrazol-1-yl)pyridin-2-yl)-2,2,2-trifluoroethanol] | > 10 µM | > 0.05 µM | > 1 µM | > 10 µM | > 0.1 µM | > 0.1 µM
N#CC(c1ccc(-n2cc(-c3ccnc4[nH]cnc34)cn2)nc1)N1CC(F)(F)C1 (stereo not drawn) [Example 1111, 2-(6-(4-(3H-imidazo[4,5-b]pyridin-7-yl)-1H-pyrazol-1-yl)pyridin-3-yl)-2-(3,3-difluoroazetidin-1-yl)acetonitrile] | > 10 µM | < 0.5 µM | > 10 µM | > 10 µM | < 0.5 µM | > 0.5 µM
N#CC(c1ccc(-n2cc(-c3ccnc4[nH]cnc34)cn2)nc1)N1CCS(=O)(=O)CC1 (stereo not drawn) [Example 1113, 2-(6-(4-(3H-imidazo[4,5-b]pyridin-7-yl)-1H-pyrazol-1-yl)pyridin-3-yl)-2-(1,1-dioxidothiomorpholino)acetonitrile] | > 10 µM | > 0.5 µM | > 1 µM | > 10 µM | > 1 µM | > 0.1 µM
OC(Cc1ccc(-n2cc(-c3ccnc4[nH]cnc34)cn2)nc1)C(F)(F)F (stereo not drawn) [Example 1183, 3-(6-(4-(3H-imidazo[4,5-b]pyridin-7-yl)-1H-pyrazol-1-yl)pyridin-3-yl)-1,1,1-trifluoropropan-2-ol] | > 1 µM | > 0.1 µM | > 1 µM | 1 µM | > 0.1 µM | > 0.5 µM
CS(=O)(=O)NCC(c1ccc(-n2cc(-c3ccnc4[nH]cnc34)cn2)nc1)C(F)(F)F (stereo not drawn) [Example 1209] | > 1 µM | < 0.1 µM | > 1 µM | > 0.75 µM | < 0.1 µM | < 0.1 µM
N#CCc1ccnc(-n2cc(-c3ccnc4[nH]cnc34)cn2)c1 [Example 1118, 2-(2-(4-(3H-imidazo[4,5-b]pyridin-7-yl)-1H-pyrazol-1-yl)pyridin-4-yl)acetonitrile] | > 10 µM | > 0.5 µM | > 1 µM | > 10 µM | > 0.5 µM | > 0.5 µM
OC(c1ccc(-n2cc(-c3ccnc4[nH]cnc34)cn2)nc1)(C1CCNCC1)C(F)(F)F (stereo not drawn) [Example 1135, 1-(6-(4-(3H-imidazo[4,5-b]pyridin-7-yl)-1H-pyrazol-1-yl)pyridin-3-yl)-2,2,2-trifluoro-1-(piperidin-4-yl)ethan-1-ol] | > 10 µM | < 0.1 µM | < 0.1 µM | > 1 µM | < 0.1 µM | < 0.1 µM
